Test results from patent US12084472B2 (Ardelyx, Inc., priority 2015, dated 2024).

molecular target: T1, human TGR5 (Homo sapiens, UniProt Q8TDU6); assay: Cell-based TGR5 assay (cAMP generation, HTRF); conditions: HEK293 cells stably transfected with human TGR5; cAMP by HTRF; 30 minutes at 37° C.; read-out: pEC50 Human TGR5 (converted)
T1 construct: expressed in transfected cells; host or cells: HEK293
T1 sequence (Q8TDU6 1-330): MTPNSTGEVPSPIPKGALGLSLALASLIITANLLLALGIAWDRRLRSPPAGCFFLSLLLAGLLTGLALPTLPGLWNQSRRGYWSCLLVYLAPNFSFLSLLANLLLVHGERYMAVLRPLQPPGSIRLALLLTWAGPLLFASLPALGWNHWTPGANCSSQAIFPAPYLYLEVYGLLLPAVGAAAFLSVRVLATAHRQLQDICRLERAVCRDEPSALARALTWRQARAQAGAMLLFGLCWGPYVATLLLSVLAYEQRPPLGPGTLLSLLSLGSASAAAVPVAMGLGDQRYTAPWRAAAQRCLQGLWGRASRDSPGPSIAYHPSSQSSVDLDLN
In short: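 Read-out was HTRF detection of cAMP, converted to concentration via a standard curve and fitted (3-parameter logistic) for pEC50 and maximal response. Agonist stimulation used HEK293 cells stably transfected with human TGR5, incubated 30 min at 37° C in IBMX-containing buffer at 0.05 nM to 10 μM compound.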

Compound	EC50 [nM]
Cc1ccc(C(F)(F)F)cc1CNC1(c2cnccc2-c2ccccc2OC2CC2)CC1 [Compound I-37, 1-[4-(2-cyclopropoxyphenyl)pyridin-3-yl]-N-{[2-methyl-5-(trifluoromethyl)phenyl]methyl}cyclopropan-1-amine]	< 100
CN(CCOCCN)S(=O)(=O)c1ccc(Cl)c(COC2(c3cnccc3-c3ccccc3OC3CC3)CC2)c1 [Compound I-400, N-[2-(2-aminoethoxy)ethyl]-4-chloro-3-({1-[4-(2-cyclopropoxyphenyl)pyridin-3-yl]cyclopropoxy}methyl)-N-methylbenzene-1-sulfonamide]	126 to 1000
Cc1cc(COC2(c3cnccc3-c3ccccc3OC3CC3)CC2)c(Cl)cc1CCCCN(C)C(=O)NC[C@H](O)[C@@H](O)[C@H](O)[C@H](O)CO [Compound I-115, 1-{4-[5-chloro-4-({1-[4-(2-cyclopropoxyphenyl)pyridin-3-yl]cyclopropoxy}methyl)-2-methylphenyl]butyl}-1-methyl-3-[(2S,3R,4R,5R)-2,3,4,5,6-pentahydroxyhexyl]urea]	< 100
CN(CCCCCNC(=O)N[C@@H](CO)[C@@H](O)[C@H](O)[C@H](O)CO)S(=O)(=O)c1ccc(Cl)c(COC2(c3cnccc3-c3ccccc3OC3CC3)CC2)c1 (stereo in doubt) [Compound I-405, 1-{5-[N-methyl4-chloro-3-({1-[4-(2-cyclopropoxyphenyl)pyridin-3-yl]cyclopropoxy}methyl)benzenesulfonamido]pentyl}-3-[(2S,3R,4S,5R)-1,3,4,5,6-pentahydroxyhexan-2-yl]urea]	< 100
O=C(NC[C@H](O)[C@@H](O)[C@H](O)[C@H](O)CO)C1CCN(S(=O)(=O)c2ccc(Cl)c(COC3(c4cnccc4-c4ccccc4OC4CC4)CC3)c2)CC1 [Compound I-437, 1-[4-chloro-3-({1-[4-(2-cyclopropoxyphenyl)pyridin-3-yl]cyclopropoxy}methyl)benzenesulfonyl]-N-[(2S,3R,4R,5R)-2,3,4,5,6-pentahydroxyhexyl]piperidine-4-carboxamide]	< 100
CC(CCCN(C(=O)[C@@H](O)[C@@H](O)[C@H](O)[C@@H](O)CO)C1CCOCC1)c1ccc(Cl)c(CNC2(c3cnccc3-c3ccccc3OC3CC3)CC2)c1 (stereo partly drawn) [Compound I-285, (2S,3S,4R,5S)-N-(4-{4-chloro-3-[({1-[4-(2-cyclopropoxyphenyl)pyridin-3-yl]cyclopropyl}amino)methyl]phenyl}pentyl)-2,3,4,5,6-pentahydroxy-N-(oxan-4-yl)hexanamide]	126 to 1000
CC(CCCc1cc(Cl)c(COC2(c3cnccc3-c3ccccc3OC3CC3)CC2)cc1Cl)C(=O)N(C)C[C@H](O)[C@@H](O)[C@H](O)[C@H](O)CO (stereo partly drawn) [Compound I-140, 5-[2,5-dichloro-4-({1-[4-(2-cyclopropoxyphenyl)pyridin-3-yl]cyclopropoxy}methyl)phenyl]-N,2-dimethyl-N-[(2S,3R,4R,5R)-2,3,4,5,6-pentahydroxyhexyl]pentanamide]	< 100
CN(C)CCN(C[C@H](O)[C@@H](O)[C@H](O)[C@H](O)CO)C(=O)CCCCc1cc(Cl)c(COC2(c3cnccc3-c3ccccc3OC3CC3)CC2)cc1Cl [Compound I-207, 5-[2,5-dichloro-4-({1-[4-(2-cyclopropoxyphenyl)pyridin-3-yl]cyclopropoxy}methyl)phenyl)-N-[2-(dimethylamino)ethyl]-N-[(2S,3R,4R,5R)-2,3,4,5,6-pentahydroxyhexyl]pentanamide]	126 to 1000
O=C(NCCOCCNS(=O)(=O)c1ccc(Cl)c(COC2(c3cnccc3-c3ccccc3OC3CC3)CC2)c1)N[C@@H](CO)[C@@H](O)[C@H](O)[C@H](O)CO (stereo in doubt) [Compound I-408, 1-(2-{2-[4-chloro-3-({1-[4-(2-cyclopropoxyphenyl)pyridin-3-yl]cyclopropoxy}methyl)benzenesulfonamido]ethoxy}ethyl)-3-[(2S,3R,4S,5R)-1,3,4,5,6-pentahydroxyhexan-2-yl]urea]	< 100
O=C(CN1CCN(S(=O)(=O)c2ccc(Cl)c(COC3(c4cnccc4-c4ccccc4OC4CC4)CC3)c2)CC1)NC[C@H](O)[C@@H](O)[C@H](O)[C@H](O)CO [Compound I-440, 2-{4-[4-chloro-3-({1-[4-(2-cyclopropoxyphenyl)pyridin-3-yl]cyclopropoxy}methyl)benzenesulfonyl]piperazin-1-yl}-N-[(2S,3R,4R,5R)-2,3,4,5,6-pentahydroxyhexyl]acetamide]	126 to 1000
O=C(CCN1CCN(S(=O)(=O)c2ccc(Cl)c(COC3(c4cnccc4-c4ccccc4OC4CC4)CC3)c2)CC1)NC[C@H](O)[C@@H](O)[C@H](O)[C@H](O)CO [Compound I-443, 3-{4-[4-chloro-3-({1-[4-(2-cyclopropoxyphenyl)pyridin-3-yl]cyclopropoxy}methyl)benzenesulfonyl]piperazin-1-yl}-N-[(2S,3R,4R,5R)-2,3,4,5,6-pentahydroxyhexyl]propanamide]	126 to 1000
CN(CCCCCc1cc(Cl)c(COC2(c3cnccc3-c3ccccc3OC3CC3)CC2)cc1Cl)C(=O)[C@@H](O)[C@@H](O)[C@H](O)[C@@H](O)CO (stereo in doubt) [Compound I-228, (2S,3S,4R,5S)-N-{5-[2,5-dichloro-4-({1-[4-(2-cyclopropoxyphenyl)pyridin-3-yl]cyclopropoxy}methyl)phenyl]pentyl}-2,3,4,5,6-pentahydroxy-N-methylhexanamide]	< 100

Other lines, results leading:

EC50 [nM]	Compound
< 100	CC(=O)NCCCN(CCCSc1ccc(Cl)c(COC2(c3cnccc3-c3ccccc3OC3CC3)CC2)c1)C(=O)[C@@H](O)[C@@H](O)[C@H](O)[C@@H](O)CO [Compound I-594, (2S,3S,4R,5S)-N-(3-{[4-chloro-3-({1-[4-(2-cyclopropoxyphenyl)pyridin-3-yl]cyclopropoxy}methyl)phenyl]sulfanyl}propyl)-N-(3-acetamidopropyl)-2,3,4,5,6-pentahydroxyhexanamide]
126 to 1000	O=C1CCCN1CCCN(CCCCSc1ccc(Cl)c(CNC2(c3cnccc3-c3ccccc3OC3CC3)CC2)c1)C(=O)[C@@H](O)[C@@H](O)[C@H](O)[C@@H](O)CO [Compound I-554, (2S,3S,4R,5S)-N-[4-({4-chloro-3-[({1-[4-(2-cyclopropoxyphenyl)pyridin-3-yl]cyclopropyl}amino)methyl]phenyl}sulfanyl)butyl]-2,3,4,5,6-pentahydroxy-N-[3-(2-oxopyrrolidin-1-yl)propyl]hexanamide]
126 to 1000	CN(C[C@H](O)[C@@H](O)[C@H](O)[C@H](O)CO)C(=O)c1ccc(CSc2ccc(Cl)c(CNC3(c4cnccc4-c4ccccc4OC4CC4)CC3)c2)cc1 [Compound I-680, 4-[({4-chloro-3-[({1-[4-(2-cyclopropoxyphenyl)pyridin-3-yl]cyclopropyl}amino)methyl]phenyl}sulfanyl)methyl]-N-methyl-N-[(2S,3R,4R,5R)-2,3,4,5,6-pentahydroxyhexyl]benzamide]
< 100	CN(C[C@H](O)[C@@H](O)[C@H](O)[C@H](O)CO)C(=O)CC1CN(S(=O)(=O)c2ccc(Cl)c(COC3(c4cnccc4-c4ccccc4OC4CC4)CC3)c2)C1 [Compound I-447, 2-{1-[4-chloro-3-({1-[4-(2-cyclopropoxyphenyl)pyridin-3-yl]cyclopropoxy}methyl)benzenesulfonyl]azetidin-3-yl}-N-methyl-N-[(2S,3R,4R,5R)-2,3,4,5,6-pentahydroxyhexyl]acetamide]
< 100	O=C(NCC(O)C(O)C(O)C(O)CO)N[C@@H](CCCNS(=O)(=O)c1ccc(Cl)c(COC2(c3cnccc3-c3ccccc3OC3CC3)CC2)c1)C(=O)O (stereo partly drawn) [Compound I-480, (2S)-5-[4-chloro-3-({1-[4-(2-cyclopropoxyphenyl)pyridin-3-yl]cyclopropoxy}methyl)benzenesulfonamido]-2-{[(2,3,4,5,6-pentahydroxyhexyl)carbamoyl]amino}pentanoic acid]
126 to 1000	O=C(CCCSc1ccc(Cl)c(COC2(c3cnccc3-c3ccccc3OC3CC3)CC2)c1)N(Cc1ccccc1)C[C@H](O)[C@@H](O)[C@H](O)[C@H](O)CO [Compound I-667, N-benzyl-4-{[4-chloro-3-({1-[4-(2-cyclopropoxyphenyl)pyridin-3-yl]cyclopropoxy}methyl)phenyl]sulfanyl}-N-[(2S,3R,4R,5R)-2,3,4,5,6-pentahydroxyhexyl]butanamide]
< 100	CCOC(=O)NCCCN(CCCCSc1ccc(Cl)c(COC2(c3cnccc3-c3ccccc3OC3CC3)CC2)c1)C(=O)[C@@H](O)[C@@H](O)[C@H](O)[C@@H](O)CO [Compound I-578, ethyl N-{3-[(2S,3S,4R,5S)-N-(4-{[4-chloro-3-({1-[4-(2-cyclopropoxyphenyl)pyridin-3-yl]cyclopropoxy}methyl)phenyl]sulfanyl}butyl)-2,3,4,5,6-pentahydroxyhexanamido]propyl}carbamate]
126 to 1000	Cc1ccc(SCCCN(C(=O)[C@@H](O)[C@@H](O)[C@H](O)[C@@H](O)CO)C2CCOCC2)cc1COC1(c2cnccc2-c2ccccc2OC2CC2)CC1 [Compound I-540, (2S,3S,4R,5S)-N-(3-{[3-({1-[4-(2-cyclopropoxyphenyl)pyridin-3-yl]cyclopropoxy}methyl)-4-methylphenyl]sulfanyl}propyl)-2,3,4,5,6-pentahydroxy-N-(oxan-4-yl)hexanamide]
< 100	CC(=O)NCCCCN(C)S(=O)(=O)c1ccc(Cl)c(COC2(c3cnccc3-c3ccccc3OC3CC3)CC2)c1 [Compound I-766, N-(4-((4-chloro-3-((1-(4-(2-cyclopropoxyphenyl)pyridin-3-yl)cyclopropoxy)methyl)-N-methylphenyl)sulfonamido)butyl)acetamide]
